Common to all, as to type: physicochemical
Data set [1] can be described thus: Water content (Karl Fisher) of tablets before and after storage. The note with it: tablets compressed at 500 kg/cm^2. Here is the method:
Determined as a value obtained by measuring about 0.1 g of trehalose and determining its water content by the Karl Fisher method.
One hundred grams of commercial “Trehaose” (available from Hayashibara Biochemical Laboratories, Inc.) was dissolved in water to a concentration of about 35 wt %, and the resulting solution was concentrated under reduced pressure with heating at 60° C. so as to have a concentration of about 75 wt %, and allowed to stand at room temperature to precipitate crystals, which were washed with 50 ml of water. Glucose was removed by carrying out the above purification procedure once or twice, to increase the trehalose purity. Trehalose A was obtained by carrying out the purification procedure twice to obtain crystals, drying the crystals, grinding the dried crystals with a bantam mill (number of revolutions 15,000 rpm, feed rate 5 kg/hr, and screen opening 2.0 mmφ), and then sifting the ground crystals through a […]. Trehalose B was obtained by carrying out the purification procedure once to obtain crystals, drying the crystals, grinding the dried crystals with a bantam mill (number of revolutions 10,000 rpm, feed rate 5 kg/hr, and screen opening 2.00 mmφ), and then sifting the ground crystals through a 350-μm screen. Trehalose C was obtained by carrying out the purification procedure once to obtain crystals, drying the crystals, grinding the dried crystals with a bantam mill (number of revolutions 8,000 rpm, feed rate 5 kg/hr, and screen opening 2.0 mmφ), and then sifting the ground crystals through a 350-μm screen. […] Each of trehaloses A to C was compressed into tablets at a compression pressure of 500 kg/cm^2, and the tablet hardness immediately after the compression and the tablet hardness after standing for 3 days in an atmosphere of 40° C. and 75% RH after the compression were compared.
“Trehaose” (available from Hayashibara Bioscience Laboratories Co., Ltd.) was purified once by the method described in Example 1 to obtain crystals, which were dried, ground with a bantam mill (number of revolutions 12,000 rpm, feed rate 5 kg/hr, and screen opening 2.0 mmφ) and then dried at 105° C. for 4 hours to obtain trehalose anhydrous crystals. These crystals were compressed into tablets at a compression pressure of 500 kg/cm^2, and the tablet hardnesses of the tablets were compared in the same manner as in Example 1.

Data set [2] can be described thus: Change in whiteness of excipient mixed with drug at 40° C. and 75% RH (reactivity). The method, then: (§1) For powder of trehalose or a pharmaceutical composition containing trehalose, values of L, a and b were measured with a color analyzer (TC-1800MKII, mfd. by Tokyo Denshoku Co., Ltd.), and the whiteness of the trehalose or pharmaceutical composition was calculated by the following equation: […]
One gram of each of the trehaloses obtained in Example 1 and 1 g of isoniazid were mixed and then allowed to stand in an atmosphere of 40° C. and 75% RH, and the change in whiteness of the trehalose was observed. On the other hand, 1 g of each of the trehaloses obtained in Example 1 and 1 g of aminophyline were mixed and then allowed to stand in an atmosphere of 40° C. and 75% RH, and the change in whiteness of the trehalose was observed.
One gram of 100-mesh lactose (available from De Melkindustrie Veghel bv) or 1 g of Mannit S (available from Tohwa Kasei Co., Ltd.) and 1 g of aminophyline were mixed and then allowed to stand in an atmosphere of 40° C. and 75% RH, and the change in whiteness of the lactose or Mannit S was observed.
As a starting material. […]

The nature of the next data set: Apparent specific volume. Conditions: excipient powder. The source says:
The whole of 10 g of trehalose powder was gently poured into a 100-ml measuring cylinder without making an impact (in this case, a cylinder having an outside diameter smaller than the inside diameter of the measuring cylinder was placed in the measuring cylinder, and it was slowly lifted after pouring the trehalose), and the apparent specific volume was expressed as a value obtained by dividing the read volume by the weight of the trehalose.

A short description of data set [3]: Angle of repose (Sugiwara's instrument). The note with it: excipient powder. The source says: Measured by means of a Sugiwara's instrument for measuring angle of repose (Yakuzaigaku 27, p. 260, 1965).
Data set [4] in a line: Proportion of particles of 75 μm or more (Air Jet Sieve). The note with it: excipient powder. The method, then: Five grams of trehalose was weighed onto a screen having a screen opening of 75 μm, and sifted with Air Jet Sieve (Model 200LS, mfd. by ALPINE) for 5 minutes, and the weight percentage of the weight of particles remaining on the screen based on the total weight of particles was calculated as the proportion of particles of 75 μm or more.

Data set [5] is described as follows: Consolidation of powder during storage. The note with it: compared with trehaloses B and C.
Data set [6] in a line: Disintegration time according to Japanese Pharmacopoeia. The method, then: The disintegration time of each of six molded products was measured by the use of ion-exchanged water according to the disintegration time measuring method prescribed in the 13th revised Japanese Pharmacopoeia, and the average of measured values was calculated.
Data set [7] in a line: Whiteness of powder (color analyzer). The note with it: excipient powder. Here is the method: as §1
Data set [8] in a line: Tablet hardness (Schleuniger hardness meter).
The nature of data set [9]: Average particle size (sieving, 50% cumulative weight). The note with it: excipient powder. Here is the method: Five grams of trehalose was sifted through screens having screen openings of 500 μm, 300 μm and 250 μm, respectively, and then sifted with Air Jet Sieve by using screens having screen openings of 150 μm, 75 μm, 45 μm, 38 μm and 32 μm, respectively. The oversize particle weight percentage [%] was calculated for each screen, and the average particle size is expressed as a particle size corresponding to a cumulative weight percentage of 50%.

A short description of data set [10]: Colour change of molded product stored at 40° C. for 3 months. The note with it: Example 9 process molded product in glass bottle. The method, then:
This molded product and the rapidly disintegrable molded product obtained in Example 9 by using the trehalose B were placed in separate glass bottles, respectively, and stored at 40° C. for 3 months.

Setting [11] is: Example 10: as Example 9 but molded at 60 kg/cm^2, listed as A.
Where [12] appears, read: ascorbic acid tablets (Example 12), compression pressure 500 kg/cm^2.
Setting [13] is: ascorbic acid tablets (Example 12), compression pressure 800 kg/cm^2.
Where [14] appears, read: Example 10: as Example 9 but molded at 60 kg/cm^2, listed as B.

The structures appear in SMILES notation.

For `OC[C@H]1O[C@H](O[C@H]2O[C@H](CO)[C@@H](O)[C@H](O)[C@H]2O)[C@H](O)[C@@H](O)[C@@H]1O` [Trehalose A, trehalose], the Water content in [1] (0 day, listed as A) stood at 9.7%; in data set [1] (3 days at 40° C. and 75% RH) it was 9.8%. Moreover, the Whiteness was 100% in data set [2] (1 g excipient + 1 g aminophyline, 0 day, listed as A); 98% in data set [2] (1 g excipient + 1 g aminophyline, 40° C. and 75% RH, 1 month, listed as A); 98% in data set [2] (1 g excipient + 1 g isoniazid, 0 day, listed as A); 97% in data set [2] (1 g excipient + 1 g isoniazid, 40° C. and 75% RH, 1 month, listed as A); 98% in data set [7] (listed as A). Besides, the Apparent specific volume in the data set “Apparent specific volume” (listed as A) is recorded as 3.1 cm^3/g. In [3] (listed as A), this compound displayed an Angle of repose of 48 °. Besides, in data set [4] (listed as A), the “Proportion of particles of 75 μm or more” value came to 15%. Also, in data set [5], the Consolidation during storage entry is “consolidated during storage”. The “Disintegration time according to Japanese Pharmacopoeia” value in data set [6] (Example 8: molded product of trehalose only, 30 kg/cm^2, listed as A) amounted to 15 s; in data set [6] (setting [11]) it was 52 s; in data set [6] (setting [12]), 17 s; in data set [6] (setting [13]), 25 s; in data set [6] (process of Example 9: 950 g excipient + 50 g phenylpropanolamine hydrochloride, 30 kg/cm^2, listed as A), 16 s. Moreover, the Tablet hardness in data set [8] (Example 8: molded product of trehalose only, molded at 30 kg/cm^2, dried overnight at 40° C., listed as A) is 7.5 kg; in data set [8] (setting [11]) it was 10.2 kg; in data set [8] (setting [12]), 4.0 kgf; in data set [8] (setting [13]) it was 7.0 kgf; in [8] (process of Example 9: 950 g excipient + 50 g phenylpropanolamine hydrochloride, molded at 30 kg/cm^2, listed as A), 7.0 kg; in [8] (tablets compressed at 500 kg/cm^2, 0 day (immediately after compression), listed as A), 2.6 kgf. The compound also returned a Tablet hardness in data set [8] (tablets compressed at 500 kg/cm^2, 3 days at 40° C. and 75% RH, listed as A) of 2.5 kgf. Further, the Average particle size in [9] (listed as A) worked out at 35 μm.

In turn, `OC[C@H]1O[C@H](O[C@H]2O[C@H](CO)[C@@H](O)[C@H](O)[C@H]2O)[C@H](O)[C@@H](O)[C@@H]1O` [Trehalose B, trehalose] yielded a Water content in data set [1] (0 day, listed as B) of 9.8%. Further, the Whiteness turned out to be 99% in [2] (1 g excipient + 1 g aminophyline, 0 day, listed as B); 97% in data set [2] (1 g excipient + 1 g aminophyline, 40° C. and 75% RH, 1 month, listed as B); 98% in [2] (1 g excipient + 1 g isoniazid, 0 day, listed as B); 96% in data set [2] (1 g excipient + 1 g isoniazid, 40° C. and 75% RH, 1 month, listed as B); 97% in [7] (listed as B). The Apparent specific volume in the data set “Apparent specific volume” (listed as B) was 2.2 cm^3/g. Further, the Angle of repose in [3] (listed as B) is given as 42 °. The “Proportion of particles of 75 μm or more” value in data set [4] (listed as B) was 46%. The “Disintegration time according to Japanese Pharmacopoeia” value in data set [6] (Example 8: molded product of trehalose only, 30 kg/cm^2, listed as B) turned out to be 12 s; in data set [6] (setting [14]), 45 s; in [6] (process of Example 9: 950 g excipient + 50 g phenylpropanolamine hydrochloride, 30 kg/cm^2, listed as B) it was 14 s. The Tablet hardness in data set [8] (Example 8: molded product of trehalose only, molded at 30 kg/cm^2, dried overnight at 40° C., listed as B) worked out at 6.6 kg; in data set [8] (setting [14]), 9.4 kg; in data set [8] (process of Example 9: 950 g excipient + 50 g phenylpropanolamine hydrochloride, molded at 30 kg/cm^2, listed as B), 6.5 kg; in [8] (tablets compressed at 500 kg/cm^2, 0 day (immediately after compression), listed as B), 2.5 kgf; in [8] (tablets compressed at 500 kg/cm^2, 3 days at 40° C. and 75% RH, listed as B), 2.4 kgf. In data set [10], the “Change in color of molded product” value is reported as “somewhat yellowed”. Further, the Average particle size in [9] (listed as B) is recorded as 72 μm.
